The experiment relates to BDF1 mice, M5076 sarcoma ip, median survival T/C. Nature of the experiment: NCI In Vivo Anticancer Drug Screen. Data for tumor model Sarcoma M5076 (intraperitoneal) in B6D2F1 (BDF1) mice. The following applies: endpoint: median survival time, higher = longer survival. The procedure:
The antitumor activity of compounds was measured in mice bearing transplantable tumors. Survival or tumor size were measured and the results are expressed as the measurement made in the treated group (T) divided by the measurement made in the vehicle treated control group (C). The tumor model used in this assay is Sarcoma M5076 (intraperitoneal) in B6D2F1 (BDF1) mice

Toxic doses and inconclusive results are not listed.

With `COC1CC(C)C(OC)C2=CC(=O)C=C(NC(=O)/C(C)=C/C=C\C(C)C(OC(N)=O)/C(C)=C\C(C)C1OC)C2=O` (stereo not given), the T/C by setting is: (dose: 6.25 mg/kg/injection, schedule: Q04DX004 (ip), vehicle: saline + Tween-80 + alcohol) 124 % of control; (dose: 12.5 mg/kg/injection, schedule: Q04DX004 (ip), vehicle: saline + Tween-80 + alcohol) 124 % of control.
Turning to `C=C1C(=O)O[C@H]2C1[C@H](OC(=O)/C(C)=C\C)CC(=C)[C@@H]1C(=O)[C@H]3O[C@@]3(C)[C@@]12O` (stereo not given in full), the T/C runs as follows: (dose: 0.5 mg/kg/injection, schedule: Q01DX009 (ip), vehicle: saline + alcohol) 107 % of control; (dose: 1.0 mg/kg/injection, schedule: Q01DX009 (ip), vehicle: saline + alcohol) 102 % of control; (dose: 2.0 mg/kg/injection, schedule: Q01DX009 (ip), vehicle: saline + alcohol) 104 % of control; (dose: 5.0 mg/kg/injection, schedule: Q01DX009 (ip), vehicle: saline + alcohol) 113 % of control.
`COC1C(O)CC(OC2CC(Oc3cc4cc5c(c(O)c4c(O)c3C)C(=O)[C@@H](OC3CC(OC4CC(OC6CC(C)(O)C(OC(C)=O)C(C)O6)C(O)C(C)O4)C(O)C(C)O3)[C@H]([C@H](OC)C(=O)[C@@H](O)[C@@H](C)O)C5)OC(C)C2OC(C)=O)OC1C` (stereo not given in full): the T/C (dose: 37.5 micrograms/kg/injection, schedule: Q01DX009 (ip), vehicle: water) is 168 % of control and the T/C (dose: 75.0 micrograms/kg/injection, schedule: Q01DX009 (ip), vehicle: water) is 163 % of control.
As for `CS(C)(O)NC(N)=O`, the T/C is, setting by setting: (dose: 50.0 mg/kg/injection, schedule: Q04DX004 (ip), vehicle: water) 104 % of control; (dose: 100.0 mg/kg/injection, schedule: Q04DX004 (ip), vehicle: water) 102 % of control; (dose: 200.0 mg/kg/injection, schedule: Q04DX004 (ip), vehicle: water) 104 % of control; (dose: 400.0 mg/kg/injection, schedule: Q04DX004 (ip), vehicle: water) 100 % of control; (dose: 800.0 mg/kg/injection, schedule: Q04DX004 (ip), vehicle: water) 107 % of control.
For the compound `O=C1c2ccccc2C(=O)c2c(NCCNCCO)ccc(NCCNCCO)c21`, the T/C by setting is: (dose: 5.0 mg/kg/injection, schedule: Q04DX005 (ip), vehicle: saline) 277 % of control; (dose: 10.0 mg/kg/injection, schedule: Q04DX005 (ip), vehicle: saline) 357 % of control.
As to `O=C(O)C1(C(=O)O)CCC1.[NH2-].[NH2-].[Pt+2]`, the T/C reads like this: (dose: 15.6 mg/kg/injection, schedule: Q04DX005 (ip), vehicle: water) 186 % of control; (dose: 25.92 mg/kg/injection, schedule: Q04DX005 (ip), vehicle: water) 182 % of control; (dose: 43.2 mg/kg/injection, schedule: Q04DX005 (ip), vehicle: water) 194 % of control; (dose: 72.0 mg/kg/injection, schedule: Q04DX005 (ip), vehicle: water) 220 % of control; (dose: 120.0 mg/kg/injection, schedule: Q04DX005 (ip), vehicle: water) 275 % of control.
